Earlier results as cited in publication PMC11448502, “Cryo-EM structures of the human P2X1 receptor reveal subtype-specific architecture and antagonism by supramolecular ligand-binding” (Nature Communications, 2024).
Where two headings read alike, the source gives them in different places.

What was measured:
[1] = biological target: P2X7 receptor; parameters: method as in PMID 33125712, PMID 18657557; conditions: read-out: apparent affinity for ATP, cited from earlier work
[2] = tested on: platelets; conditions: ex vivo; cited from earlier work
[3] = tested on: P2X1; parameters: method as in doi.org/10.1074/jbc.M114.592246; conditions: reviewer comment; ref doi.org/10.1074/jbc.M114.592246; cited from earlier work

SMILES: Nc1ncnc2c1ncn2[C@@H]1O[C@H](COP(=O)(O)OP(=O)(O)OP(=O)(O)O)[C@@H](O)[C@H]1O [ATP]
- EC50 [1]: > 100 µM
- EC50 ([1]; under certain conditions): > 1000 µM

SMILES: O=C(Nc1cc(C(=O)Nc2ccc(S(=O)(=O)O)cc2S(=O)(=O)O)cc(C(=O)Nc2ccc(S(=O)(=O)O)cc2S(=O)(=O)O)c1)Nc1cc(C(=O)Nc2ccc(S(=O)(=O)O)cc2S(=O)(=O)O)cc(C(=O)Nc2ccc(S(=O)(=O)O)cc2S(=O)(=O)O)c1 [NF449, 4,4’,4”,4’’’-(carbonylbis(imino-5,1,3-benzenetriylbis(carbonylimino)))tetrakis-benzene-1,3-disulfonic acid]
- effect on platelet activation [2]: inhibitory effect
- Hill coefficient [3]: ~ 1.4
